Experimental data: PubChem BioAssay (NCI)
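Cells were grown in 96-well plates and exposed to each compound for 48 hours at five concentrations; endpoints were interpolated linearly between bracketing concentrations, or set to the highest concentration if not reached. TGI: total growth inhibition.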

Legend:
Assay in all cases: growth of human tumour cells (NCI), 48 h
MDA-MB-231 breast = tested on: MDA-MB-231 breast
SW-620 colon = tested on: SW-620 colon
HS 578T breast = tested on: HS 578T breast
ACHN renal = tested on: ACHN renal
RXF 393 renal = tested on: RXF 393 renal
UACC-257 melanoma = tested on: UACC-257 melanoma
NCI/ADR-RES ovarian = tested on: NCI/ADR-RES ovarian
MALME-3M melanoma = tested on: MALME-3M melanoma
DU-145 prostate = tested on: DU-145 prostate
UACC-62 melanoma = tested on: UACC-62 melanoma
HCC-2998 colon = tested on: HCC-2998 colon
KM12 colon = tested on: KM12 colon
OVCAR-5 ovarian = tested on: OVCAR-5 ovarian
NCI-H522 lung = tested on: NCI-H522 lung
MDA-N = tested on: MDA-N
OVCAR-3 ovarian = tested on: OVCAR-3 ovarian
RPMI-8226 leukemia = tested on: RPMI-8226 leukemia
SK-OV-3 ovarian = tested on: SK-OV-3 ovarian
SNB-19 CNS = tested on: SNB-19 CNS
T-47D breast = tested on: T-47D breast
U251 CNS = tested on: U251 CNS
HOP-92 NSCLC = tested on: HOP-92 NSCLC
MCF7 breast = tested on: MCF7 breast
BT-549 breast = tested on: BT-549 breast
SK-MEL-2 melanoma = tested on: SK-MEL-2 melanoma
UO-31 renal = tested on: UO-31 renal
786-0 renal = tested on: 786-0 renal
HCT-116 colon = tested on: HCT-116 colon
A498 renal = tested on: A498 renal
NCI-H23 lung = tested on: NCI-H23 lung
MOLT-4 leukemia = tested on: MOLT-4 leukemia
NCI-H226 lung = tested on: NCI-H226 lung
PC-3 prostate = tested on: PC-3 prostate
SN12C renal = tested on: SN12C renal
TK-10 renal = tested on: TK-10 renal
SF-539 CNS = tested on: SF-539 CNS
SR leukemia = tested on: SR leukemia
HT29 colon = tested on: HT29 colon
NCI-H460 lung = tested on: NCI-H460 lung
A549 NSCLC = tested on: A549 NSCLC
OVCAR-4 ovarian = tested on: OVCAR-4 ovarian
CAKI-1 renal = tested on: CAKI-1 renal
OVCAR-8 ovarian = tested on: OVCAR-8 ovarian
SF-268 CNS = tested on: SF-268 CNS
MDA-MB-435 = tested on: MDA-MB-435
M14 melanoma = tested on: M14 melanoma
COLO 205 colon = tested on: COLO 205 colon
EKVX NSCLC = tested on: EKVX NSCLC
IGROV1 ovarian = tested on: IGROV1 ovarian
LOX IMVI melanoma = tested on: LOX IMVI melanoma
HCT-15 colon = tested on: HCT-15 colon
K-562 leukemia = tested on: K-562 leukemia
SK-MEL-28 melanoma = tested on: SK-MEL-28 melanoma
HOP-62 NSCLC = tested on: HOP-62 NSCLC
SF-295 CNS = tested on: SF-295 CNS
SK-MEL-5 melanoma = tested on: SK-MEL-5 melanoma
HL-60(TB) leukemia = tested on: HL-60(TB) leukemia
CCRF-CEM leukemia = tested on: CCRF-CEM leukemia
SNB-75 CNS = tested on: SNB-75 CNS

C=CCSC1=N/C(=C\c2cccs2)C(=O)N1CC=C
TGI (MDA-MB-231 breast): > 100 µM
TGI (SW-620 colon): > 100 µM
TGI (HS 578T breast): > 100 µM
TGI (ACHN renal): > 100 µM
TGI (RXF 393 renal): 64.2 µM
TGI (UACC-257 melanoma): > 100 µM
TGI (NCI/ADR-RES ovarian): > 100 µM
TGI (MALME-3M melanoma): > 100 µM
TGI (DU-145 prostate): > 100 µM
TGI (UACC-62 melanoma): > 100 µM
TGI (HCC-2998 colon): > 100 µM
TGI (KM12 colon): > 100 µM
TGI (OVCAR-5 ovarian): > 100 µM
TGI (NCI-H522 lung): > 100 µM
TGI (MDA-N): > 100 µM
TGI (OVCAR-3 ovarian): > 100 µM
TGI (RPMI-8226 leukemia): 91.3 µM
TGI (SK-OV-3 ovarian): > 100 µM
TGI (SNB-19 CNS): > 100 µM
TGI (T-47D breast): 69.3 µM
TGI (U251 CNS): > 100 µM
TGI (HOP-92 NSCLC): 57 µM
TGI (MCF7 breast): > 100 µM
TGI (BT-549 breast): > 100 µM
TGI (SK-MEL-2 melanoma): > 100 µM
TGI (UO-31 renal): > 100 µM
TGI (786-0 renal): > 100 µM
TGI (HCT-116 colon): > 100 µM
TGI (A498 renal): 95.3 µM
TGI (NCI-H23 lung): > 100 µM
TGI (MOLT-4 leukemia): 62.2 µM
TGI (NCI-H226 lung): > 100 µM
TGI (PC-3 prostate): > 100 µM
TGI (SN12C renal): > 100 µM
TGI (TK-10 renal): > 100 µM
TGI (SF-539 CNS): > 100 µM
TGI (SR leukemia): > 100 µM
TGI (HT29 colon): > 100 µM
TGI (NCI-H460 lung): > 100 µM
TGI (A549 NSCLC): > 100 µM
TGI (OVCAR-4 ovarian): > 100 µM
TGI (CAKI-1 renal): > 100 µM
TGI (OVCAR-8 ovarian): > 100 µM
TGI (SF-268 CNS): > 100 µM
TGI (MDA-MB-435): > 100 µM
TGI (M14 melanoma): > 100 µM
TGI (COLO 205 colon): > 100 µM
TGI (EKVX NSCLC): 71.4 µM
TGI (IGROV1 ovarian): > 100 µM
TGI (LOX IMVI melanoma): > 100 µM
TGI (HCT-15 colon): > 100 µM
TGI (K-562 leukemia): > 100 µM
TGI (SK-MEL-28 melanoma): > 100 µM
TGI (HOP-62 NSCLC): > 100 µM
TGI (SF-295 CNS): > 100 µM
TGI (SK-MEL-5 melanoma): > 100 µM

CCC[C@H](NS(=O)c1ccc(C)cc1)C(C(=O)OCC)=C(c1ccccc1)c1ccccc1 (stereo partly drawn)
TGI (MDA-MB-231 breast): > 100 µM
TGI (SW-620 colon): > 100 µM
TGI (HS 578T breast): 71.2 µM
TGI (ACHN renal): 60.8 µM
TGI (RXF 393 renal): 29.6 µM
TGI (UACC-257 melanoma): 33.5 µM
TGI (NCI/ADR-RES ovarian): > 100 µM
TGI (MALME-3M melanoma): 36.1 µM
TGI (DU-145 prostate): 36.7 µM
TGI (UACC-62 melanoma): 31.5 µM
TGI (HL-60(TB) leukemia): > 100 µM
TGI (HCC-2998 colon): 15.3 µM
TGI (KM12 colon): 37.8 µM
TGI (OVCAR-5 ovarian): 43.4 µM
TGI (NCI-H522 lung): 55.1 µM
TGI (MDA-N): 43.2 µM
TGI (RPMI-8226 leukemia): 55.8 µM
TGI (SK-OV-3 ovarian): > 100 µM
TGI (SNB-19 CNS): > 100 µM
TGI (T-47D breast): 88.6 µM
TGI (U251 CNS): 33.5 µM
TGI (HOP-92 NSCLC): 33 µM
TGI (MCF7 breast): 43.2 µM
TGI (CCRF-CEM leukemia): > 100 µM
TGI (BT-549 breast): 48.3 µM
TGI (SK-MEL-2 melanoma): 31.7 µM
TGI (UO-31 renal): 31.2 µM
TGI (786-0 renal): 35.9 µM
TGI (HCT-116 colon): 27.4 µM
TGI (A498 renal): 46 µM
TGI (NCI-H23 lung): 96 µM
TGI (MOLT-4 leukemia): > 100 µM
TGI (NCI-H226 lung): 51.6 µM
TGI (PC-3 prostate): 50.7 µM
TGI (SN12C renal): 41.7 µM
TGI (TK-10 renal): 97 µM
TGI (SF-539 CNS): 48.5 µM
TGI (HT29 colon): 30.4 µM
TGI (NCI-H460 lung): 36.5 µM
TGI (A549 NSCLC): 96.9 µM
TGI (OVCAR-4 ovarian): 49 µM
TGI (CAKI-1 renal): 35.6 µM
TGI (OVCAR-8 ovarian): 97.4 µM
TGI (SF-268 CNS): > 100 µM
TGI (MDA-MB-435): 35 µM
TGI (M14 melanoma): 51.2 µM
TGI (COLO 205 colon): 46.1 µM
TGI (EKVX NSCLC): 38.6 µM
TGI (IGROV1 ovarian): 75.8 µM
TGI (LOX IMVI melanoma): 33.6 µM
TGI (HCT-15 colon): > 100 µM
TGI (SNB-75 CNS): 54.2 µM
TGI (K-562 leukemia): > 100 µM
TGI (SK-MEL-28 melanoma): 58 µM
TGI (HOP-62 NSCLC): 36.4 µM
TGI (SF-295 CNS): 40 µM
TGI (SK-MEL-5 melanoma): 44.4 µM
